From patent publication US20230149407A1, “Methods of Treating Coronavirus Disease 2019” (priority 2020, published 2023)
“Also recorded” adds a separate entry of the source.

Tests used:
IL-6 = experiment: expected suppression of IL-6 at clinical tofacitinib doses; type: in vivo, human
IL-6/STAT3 signaling = experiment: in-vitro IL-6/STAT3 signaling; type: cell-based; settings: both at 5 and 10 mg
[1] = system: IFNα, IFNβ, IFNγ, TNFα, IL-1, IL-2, IL4, IL-6, IL-7, IL-9, IL-10, IL-12, IL13, IL-15, IL-21, IL-23, and IL-27; settings: cited from earlier work
[2] = system: moderately to severely active RA; experiment: 12-week study in patients with moderately to severely active RA; type: in vivo, human; settings: doses of 200 and 400 mg as modified release (MR) tablets
[3] = system: blood transcriptional programs for type I interferons and IL-6; experiment: blood transcriptional programs in healthy volunteers and RA patients; type: in vivo, human
inflammatory monocytes = experiment: levels of inflammatory monocytes; design: species or system human; settings: in vivo
[4] = system: human bronchial epithelial cells; experiment: chemokine production from human bronchial epithelial cells; type: cell-based
C-reactive protein (CRP) = experiment: expected reduction in CRP (exposure response model); type: in vivo, human
LPS-induced TNFα = experiment: acute model of endotoxin-induced inflammation in rats; type: in vivo, rat; settings: administered orally
[5] = system: imiquimod (a TLR7 agonist)-induced skin inflammation; experiment: 5-day murine model of imiquimod-induced skin inflammation; type: in vivo; settings: 5-day murine imiquimod model
[6] = system: collagen-induced arthritis; experiment: rat collagen-induced arthritis model; type: in vivo
hsCRP = hsCRP in healthy adults; type: in vivo, human
[7] = renal excretion of PF-06650833; settings: in vivo

## C[C@@H]1CCN(C(=O)CC#N)C[C@@H]1N(C)c1ncnc2[nH]ccc12 [tofacitinib, 3-((3R,4R)-4-Methyl-3-(methyl(7H-pyrrolo[2,3-d]pyrimidin-4-yl)amino)piperidin-1-yl)-3-oxopropanenitrile]
IL-6; 5 mg BID dose
  predicted suppression of IL-6: approximately 60%
IL-6; 10 mg BID dose, may be expected
  suppression of IL-6: approximately 80%
IL-6/STAT3 signaling
  IL-6/STAT3 signaling: inhibits
[1]
  levels of IFNα, IFNβ, IFNγ, TNFα, IL-1, IL-2, IL4, IL-6, IL-7, IL-9, IL-10, IL-12, IL13, IL-15, IL-21, IL-23, and IL-27: reduces levels

## CC[C@@H]1[C@H](F)C(=O)N[C@@H]1COc1nccc2cc(C(N)=O)c(OC)cc12 [PF-06650833, 1-(((2S,3S,4S)-3-Ethyl-4-fluoro-5-oxopyrrolidin-2-yl)methoxy)-7-methoxyisoquinoline-6-carboxamide]
[2]
  efficacy in 12-week study in RA patients: demonstrated efficacy
[3]
  blood transcriptional programs for type I interferons and IL-6: dose-dependently inhibits
Inflammatory monocytes
  levels of inflammatory monocytes: reduces levels
[4]
  chemokine production, IL-1β-stimulated release of CXCL8 and IL-6: reduces
C-reactive protein (CRP); 200 mg IR suspension Q6H
  reduction in CRP: 50-60%
C-reactive protein (CRP); 400 mg MR tablets QD (or 200 mg IR suspension Q6H)
  reduction in CRP: 50-60%
LPS-induced TNFα
  LPS-induced TNFα: inhibit LPS-induced TNFα in a dose-dependent manner
[5]
  ear swelling: inhibit ear swelling in a dose-dependent manner
[6]
  hind paw swelling: significantly reduced
hsCRP
  levels of hsCRP: suppression of CRP; also recorded: dose-dependently reduced
[7]
  renal excretion: low
